Data set [1] in a line: Tmax in female Balb/c mouse at 8 mg/kg, ip measured up to 24 hrs by LC-MS/MS analysis. The class given is ADME, organism-based. Conditions: in vivo.
The test system of data set [2] is Mus musculus. As to the kind of experiment: Prevention of myocardial hypoxia injury in isoproterenol-induced male C57 mouse myocardial injury model assessed as increase in NO level in heart tissue at 8 mg/kg, ip once daily for 3 consecutive days. In kind it is functional, organism-based. Conditions: time 3.0 day.
Data set [3] is described as follows: Half life in female Balb/c mouse at 8 mg/kg, ip measured up to 24 hrs by LC-MS/MS analysis. The class given is ADME, organism-based. The settings on record: in vivo.
A short description of data set [4]: AUC (0 to last) in female Balb/c at 8 mg/kg, ip mouse measured up to 24 hrs by LC-MS/MS analysis. In kind it is ADME, organism-based. The settings on record: in vivo.
The test system of data set [5] is H9c2. Nature of the data set: Induction of NO release in rat H9c2 cells under normoxic condition at 10 uM measured for 4 hrs by Griess reagent assay relative to control. In kind it is functional. In general terms: Nitrite, measured by Griess reagent, commonly stands in for NO production.
The nature of data set [6]: Toxicity in male C57 mouse assessed as mortality at 900 mg/kg, ip measured up to 14 days observation period. The settings on record: in vivo, 336 h, time < 14 day. In kind it is organism-based.
Data set [7] deals with H9c2. As to the kind of experiment: Induction of NO release in rat H9c2 cells under hypoxia condition by Griess reagent assay relative to control. The class given is functional, cell-based.
The subject of data set [8] is Mus musculus. As to the kind of experiment: Prevention of myocardial hypoxia injury in isoproterenol-induced male C57 mouse myocardial injury model assessed as pathological myocardial change by absence of infarction areas at 8 to 16 mg/kg, ip once daily for 3 consecutive days by hematoxylin and eosin staining based analysis. In kind it is functional, organism-based. Conditions: dose 8-16 mg/kg, time 3.0 day.

Data set [9] in a line: Cmax in female Balb/c mouse at 8 mg/kg, ip measured up to 24 hrs by LC-MS/MS analysis. In kind it is ADME, organism-based. Conditions: in vivo.
For data set [10], the system named is H9c2. As to the kind of experiment: Prevention of hypoxia-induced apoptosis in rat H9c2 cells assessed as decrease in early apoptosis by measuring reduced green fluorescence at 10 uM incubated for 4 hrs by confocal microscopy with Annexin V-FITC and propidium iodide (PI) double staining analysis. The class given is functional, cell-based.
Data set [11] concerns Mus musculus. Nature of the data set: Prevention of myocardial hypoxia injury in isoproterenol-induced male C57 mouse myocardial injury model assessed as antihypertrophic effect at 16 mg/kg, ip once daily for 3 consecutive days. The class given is functional, organism-based. The settings on record: time 3.0 day.
Data set [12] is described as follows: Toxicity in isoproterenol-induced male C57 mouse assessed as body weight change at 8 mg/kg, ip once daily for 3 consecutive days. The class given is organism-based. The settings on record: in vivo, 72 h, time 3 day.
The subject of data set [13] is Mus musculus. As to the kind of experiment: Prevention of myocardial hypoxia injury in isoproterenol-induced male C57 mouse myocardial injury model assessed as decrease in heart weight ratio at 8 mg/kg, ip once daily for 3 consecutive days (reference value: 0.68%). The class given is functional. On the set-up: scale not given: the % may be the effect or the level left. The settings on record: time 3 day.

The subject of data set [14] is Mus musculus. Nature of the data set: Prevention of myocardial hypoxia injury in isoproterenol-induced male C57 mouse myocardial injury model assessed as reduction in creatine kinase-MB (CK-MB) at 5 mg/kg, ip once daily for 3 consecutive days by immunohistochemistry. The class given is functional, organism-based. The settings on record: time 3.0 day.

The values that follow come from ChEMBL document CHEMBL6087446, “Hypoxia Activated Nitric Oxide Donor Compounds for the Prevention and Treatment of Myocardial Hypoxia-Induced Injury” (J Med Chem, 2025).

Active and inactive are the calls of the source. No cut-off for these calls is given here.

As usually defined, the Tmax is the time at which the peak concentration occurs. In general, half-life refers to the time in which the quantity being followed falls by half. What is called AUC(0-t) is exposure summed from dosing to a finite time, without extrapolation to infinity. The term Cmax denotes the highest concentration seen after dosing.

Turning to `CN(N=O)c1ccc(OCc2ccc([N+](=O)[O-])c(F)c2)cc1`, the Tmax in data set [1] is 2.08 h. Also, the result in [2], in [8], in data set [11] and in data set [14] was Active. In data set [3], this compound had a half-life of 2.39 h. Also, in data set [4], the AUC(0-t) at 24 h was 626 ng·h/mL. Further, the Activity in [5] is 20%; in data set [6] it was “Non-toxic”; in data set [7], “Dose-dependent-effect”; in [10] it was “Active; Green Fluorescence Intensity Wes Lower Than Ismn Treated Cells”; in data set [12] it was “Non-toxic”; in [13], 0.53%. The same compound returned a Cmax in data set [9] of 450 ng/mL.
